Data taken from article PMC9287224 (Clinical Pharmacokinetics, 2022).
Structures can show the parent of a compound that is named as a salt.

Legend:
[1] = for decrease in Cl/F: Child C cirrhosis compared with control subjects; for decrease of the elimination rate by liver cirrhosis: liver cirrhosis (Child class not stated) vs control subjects; for reduction of the elimination rate: patients with Child C cirrhosis vs control subjects
[2] = Galactose elimination capacity; type: in vivo, human; conditions: patients with Child C cirrhosis
[3] = monkeys; cited from earlier work
CYP2C9 = CYP2C9 (Homo sapiens, UniProt P11712); conditions: patients with Child C cirrhosis vs control subjects
Sequence of CYP2C9 (P11712 whole entry): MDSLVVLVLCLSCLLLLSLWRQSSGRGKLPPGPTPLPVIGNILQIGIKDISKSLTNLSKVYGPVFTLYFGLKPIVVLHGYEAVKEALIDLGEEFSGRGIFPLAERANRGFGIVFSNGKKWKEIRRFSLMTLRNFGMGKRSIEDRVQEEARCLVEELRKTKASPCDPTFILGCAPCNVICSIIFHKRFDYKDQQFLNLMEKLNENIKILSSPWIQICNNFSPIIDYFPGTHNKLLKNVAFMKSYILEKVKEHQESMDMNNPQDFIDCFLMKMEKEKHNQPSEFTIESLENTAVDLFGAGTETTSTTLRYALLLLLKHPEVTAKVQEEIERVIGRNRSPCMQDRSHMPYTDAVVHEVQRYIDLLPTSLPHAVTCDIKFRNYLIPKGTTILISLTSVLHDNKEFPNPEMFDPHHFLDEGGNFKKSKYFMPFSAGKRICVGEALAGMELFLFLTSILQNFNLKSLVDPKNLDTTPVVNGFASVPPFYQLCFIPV

COc1ccc2[nH]c([S+]([O-])Cc3ncc(C)c(OC)c3C)nc2c1 (stereo not shown) [Omeprazole, omeprazole]
decrease in Cl/F [1]: 91% | decrease of the elimination rate by liver cirrhosis [1]: 75%

O=C[C@H](O)[C@@H](O)[C@@H](O)[C@H](O)CO [Galactose, galactose]
galactose elimination capacity as % of controls (dropping to) [2]: 18%

CC(C(=O)O)c1ccc(-c2ccc(O)cc2)c(F)c1 (stereo not shown) [4-Hydroxyflurbiprofen, 4-hydroxyflurbiprofen]
increase in the AUC0–24h by liver cirrhosis ([1]; liver cirrhosis vs control subjects (Child class not stated)): 58%

Cn1c(=O)c2c(ncn2C)n(C)c1=O [Caffeine, caffeine]
reduction of the elimination rate [1]: 51%

O=C1Nc2ccc(Cl)cc2[C@@](C#CC2CC2)(C(F)(F)F)O1 [Efavirenz, efavirenz]
bioavailability [3]: 42% | reduction of the elimination rate [1]: 30%

Cc1ncc2n1-c1ccc(Cl)cc1C(c1ccccc1F)=NC2 [Midazolam, midazolam]
decrease in Cl/F [1]: 84% | ratio of the bioavailabilities Fcirrhosis Child C/Fcontrols ([1]; assuming equal volume of distribution in cirrhosis and controls): 1.73 | clearance ([1]; human, in vivo, clearance corrected for bioavailability, controls): ~1330 mL/min

CC(C(=O)O)c1ccc(-c2ccccc2)c(F)c1 (stereo not shown) [Flurbiprofen, flurbiprofen]
change of metabolic ratio 4-hydroxyflurbiprofen/flurbiprofen (CYP2C9): remained unchanged

COCCc1ccc(OCC(O)CNC(C)C)cc1 (stereo not shown) [Metoprolol, metoprolol tartrate]
decrease of the elimination rate by liver cirrhosis [1]: 37% | Cl/F as % of control subjects (dropped to) ([1]; patients with Child C cirrhosis): 22%
